According to publication PMC3243694, “Integrated Dataset of Screening Hits against Multiple Neglected Disease Pathogens” (PLoS Neglected Tropical Diseases, 2011):

Columns and labels:
[1] = system: Onchocerca (lienalis or ochengi) microfilariae; experiment: Anti-Onchocerca microfilariae motility assay; format: cell-based, Onchocerca lienalis or O. ochengi
Procedure: (§1) The compound set was tested against the following parasites: intra-erythrocytic forms in human red blood cells of P. falciparum K1 strain (malaria), [16], [32], [33], [35], bloodstream forms of T. brucei Squib 427 strain (human African trypanosomiasis, HAT), [31], [32], [34], intracellular amastigotes of T. cruzi Tulahuen CL2, beta- galactosidase strain (Chagas' Disease), [32]–[35], intracellular amastigotes of L. infantum MHOM/MA(BE)/67 (leishmaniasis), [32]–[36], larval and/or adult worms of S. mansoni Puerto Rican strain (schistosomiasis), [31], [37], microfilariae of B. malayi (lymphatic filariasis), [30] and microfilariae of O. ochengi or O. lienalis (onchocerciasis), [30]. It should be noted that the human pathogen for onchocerciasis is Onchocerca volvulus, but due to lack of a suitable in vitro assay or animal models for this pathogen, O. ochengi and lienalis, which are both animal pathogens, are used in the primary and secondary assays, [30].
4240 compound s were screened against O. ochengi at the University of Buea in Cameroon, while a subset of […] compounds was successfully screened in UK by the Northwick Park Institute for Medical Research against O. lienalis, at a uniform molarity. […] After removing molecules that were toxic to mammalian cells (IC50<5 µg/ml), 292 molecules remained for further evaluation. […] From the latter sub-set, […] distinct chemical series and one singleton [structure # 35] were active against both microfilaria and adults. One series [structures # 2, 3] was deemed not interesting due to lack of selectivity against mammalian cells. The remaining series is being transferred to ANDI for further progression as part of a new collaboration.

[2] = system: Trypanosoma brucei brucei Squib-427 strain; experiment: Antitrypanosomal activity assay, T. brucei (resazurin); format: cell-based; conditions: T. brucei Squib 427 bloodstream forms, 72 h
Procedure: as §1

[3] = system: Trypanosoma cruzi, Tulahuen CL2 strain; experiment: Antitrypanosomal activity assay, T. cruzi in MRC-5 cells; format: cell-based; conditions: T. cruzi Tulahuen CL2 in MRC-5 cells, 7 days
Procedure: as §1
171 of the 744 actives passed the initial criterion of IC50<1 µg/ml for T. cruzi Tulahuen CL2, beta galactosidase strain maintained on MRC-5SV2 cells in MEM medium (MRC-5 cell/parasite inoculum: 4.10^3 cells/well+4.10^4 parasites/well), supplemented with […] L-glutamine, 16.5 mM NaHCO3 and 5% heat inactivated fetal calf serum. […] Of these, 109 were eliminated [structures #1–6] for poor selectivity versus mammalian cells (SI<50) and an additional 11 due to undesirable chemical attributes. The remaining 51 compounds were sorted into 10 series (45 compounds) and 6 singletons [structures # 21, 22]. Two of these series with excellent potency against T. cruzi, limited activity against other protozoa and SI values >50 (not shown), have been transferred to DNDi for further evaluation.

[4] = system: Plasmodium falciparum K1 strain; experiment: Anti-Plasmodium activity assay (Malstat); format: cell-based; conditions: P. falciparum K1, 72 h
Procedure: as §1

[5] = system: Brugia malayi microfilariae; experiment: Anti-Brugia malayi microfilariae motility assay; format: cell-based; conditions: B. malayi microfilariae; 12.5 µM
Procedure: as §1
As result of logistics issues attributed to lost shipments of some compounds, only 6160 molecules of the 10,000 compound set were tested, at a uniform molarity, against B. malayi, including 6063 against microfilariae and 756 against adult worms (these sets overlap). […] Greatest priority was given to compounds with activity against adult worms, as no macrofilaricide is available for use in control campaigns and the activity of ivermectin as a microfilaricidal agent is unlikely to be bettered in a new series. Of the test set, 53 compounds met the activity criterion for microfilariae (100% motility reduction) and an additional 58 inhibited adult worm motility ≥75% at 10 µM. These were titrated to determine an IC50 value to support prioritization. Following cytotoxicity triage [structures # 1, 4, 6], eight compounds met the activity criterion for adult worms (i.e., 100% inhibition of adult worm motility), four of which were also active against microfilariae [structures # 14, 29, 30, 32]. […] Of these, the most interesting was TDR76699 [structure # 29]; this compound has very good activity against adult worms (IC50 = 0.1 µg/ml) and is also active against microfilariae (IC50 = 0.7 µg/ml). None of the other compounds tested against adult parasites had IC50 values ≤0.5 µg/ml, a threshold which would reduce concerns about specificity. However, a few series [structures # 31, 33, 34], appear interesting for future medicinal chemistry projects.

[6] = system: Schistosoma mansoni adult worms; experiment: Anti-Schistosoma activity assay (adult worm motility); format: cell-based; conditions: S. mansoni adult worms; 12.5 µM (method: 10 µg/ml or 12.5 µM)
Procedure: as §1
A subset of 9478 of the 10,000 compound collection was tested against the Puerto Rican strain of S. mansoni. 6144 of these were tested in a primary larval assay followed by the ex-vivo adult secondary screen. The remainder was screened only in the adult assay. […] The 65 compounds were sorted by chemical attractiveness, potency against adult schistosomes in culture, selectivity against other parasites, and toxicity to mammalian cells in culture. Based on this analysis, 5 series encompassing 13 compounds were chosen for advancement through the African Network for Drug and Diagnostic Innovation (ANDI) and other PDPs. Representative structures [structures # 13, 27, 28] are shown (Table S1). These compounds are unburdened by obvious toxic moieties, have acceptable compliance with the Lipinski rules, are selectively active against schistosomes and are not overtly toxic to mammalian cells. It has unfortunately not been possible to titrate all of these hits in culture; of about 50% for which such data are available, none has an IC50<2 µg/ml (which is the initial potency criteria).

[7] = system: MRC-5 cell line (diploid human embryonic lung fibroblast); experiment: Cytotoxicity on MRC-5 cells; format: cell-based
Source text: [table] An important part of the screen is the evaluation of all compounds for cytotoxicity using the diploid human embryonic lung fibroblast MRC-5 cell line (Figure 2). Further evaluation of cytotoxicity also takes advantage of the assays for intracellular protozoan parasites, as in the case of L. infantum and T. cruzi, which include murine peritoneal macrophage host cells and MRC-5SV2 human lung fibroblast cells, respectively, in the culture system.

SMILES	ONC/MF % Motility Reduction at 12.5µM [1]	HAT IC50 [2]	CHA IC50 [3]	MAL IC50 [4]	LF/MF % Motility Reduction at 12.5µM [5]	SCH % Motility Reduction at 12.5µM [6]	CYT IC50 [7]
O=S(=O)(c1cccc(F)c1)N1CCN(c2ccc(Nc3cccnc3)nn2)CC1 [TDR86129]	0%	>12.43 µg/mL	>12.43 µg/mL	5.44 µg/mL	0%	0%	0.94 µg/mL
Cc1ccc(N2CCn3c2nnc(C(=O)NCCC2=CCCCC2)c3=O)cc1 [TDR81281]	0%	>11.38 µg/mL	>11.38 µg/mL	0.15 µg/mL		0%	>11.38 µg/mL
Cc1ccc(C(=O)Nc2nnc(Cc3cccs3)o2)cc1C [TDR85275]	0%	0.38 µg/mL	3.01 µg/mL		50%	25%	
CCCn1/c(=N/C(=O)C2=COCCO2)sc2c(C)ccc(OC)c21 [TDR82272]	20%	>10.45 µg/mL	0.89 µg/mL	3.18 µg/mL	0%	0%	>10.45 µg/mL
CC(C)(C)n1ncc2c(=O)n(CCC(=O)NCc3ccccc3Cl)cnc21 [TDR84851]	0%	>11.64 µg/mL	>11.64 µg/mL	>11.64 µg/mL	20%	100%	>11.64 µg/mL
Cc1c(C(=O)N2CCC(C)CC2)sc2nc(-c3ccc(F)cc3)cn12 [TDR77657]	0%	0.42 µg/mL	>10.72 µg/mL	>10.72 µg/mL	0%	0%	>10.72 µg/mL
CSc1ccc2nc(N(Cc3cccnc3)C(=O)c3ccc(C(C)(C)C)cc3)sc2c1 [TDR84420]	25%	>13.43 µg/mL	0.56 µg/mL	0.15 µg/mL	0%	0%	7.16 µg/mL
O=S(=O)(NCC(c1cccnc1)N1CCN(Cc2ccccc2)CC1)c1ccc(Cl)cc1 (stereo not drawn) [TDR78023]	0%	>14.13 µg/mL	0.63 µg/mL	2.18 µg/mL		0%	>14.13 µg/mL
CCOc1ccc2nc(N(Cc3cccnc3)C(=O)c3ccc(Cl)s3)sc2c1 [TDR81636]	11%	3.52 µg/mL	0.66 µg/mL	3.55 µg/mL	0%	0%	>12.2 µg/mL
O=S(=O)(c1cccnc1)N1CCN(c2ccc(-c3cccs3)nn2)CC1 [TDR85115]	0%	>11.6 µg/mL	>11.6 µg/mL	>11.6 µg/mL	50%	0%	>11.6 µg/mL
O=C(Nc1nc(-c2ccncc2)cs1)C1CCCN(S(=O)(=O)c2ccc(Cl)s2)C1 (stereo not drawn) [TDR80165]	50%	4.5 µg/mL	0.24 µg/mL	6.68 µg/mL		0%	>14.07 µg/mL
COc1ccc(N2CCCS2(=O)=O)cc1NC(=O)c1cc(Cl)ccc1OC [TDR79456]	13.3%	4.3 µg/mL	5.0 µg/mL	>12.3 µg/mL		4%	>12.3 µg/mL
O=C(CSc1ccc2nnc(-c3ccccn3)n2n1)NCC1CCCO1 (stereo not drawn) [TDR78834]	0%	3.3 µg/mL	5.2 µg/mL	3.15 µg/mL		0%	>12.1 µg/mL
O=C(CN1CCC(C(=O)Nc2ccc(Oc3ccccc3)cc2)CC1)Nc1ccc(F)cc1 [TDR80731]	0%	>13.43 µg/mL	>13.43 µg/mL	>13.43 µg/mL		0%	>13.43 µg/mL
C=CCN(CC=C)S(=O)(=O)c1ccc(C(=O)Nc2nc3ccc(C(C)C)cc3s2)cc1 [TDR78794]	0%	>10.99 µg/mL	4.48 µg/mL	>10.99 µg/mL		100%	>10.99 µg/mL
